US5135936A, “Isomers of 1-azabicyclo[2.2.2]oct-3-yl methyl 1,4-dihydro-2,6-dimethyl-4-(3-nitrophenyl)-3,5-pyridinediacarboxylic and their use as calcium antagonists” (Marion Merrell Dow Inc., priority 1991, dated 1992)
Structures can show the parent of a compound that is named as a salt.

Assays:
[1] = test system: [3H]-nitrendipine binding; details: rank among the enantiomers, in words; cited from earlier work
[2] = in words; cited from earlier work
Guinea Pig Ileum = molecular target: T1, Guinea Pig Ileum (Cavia porcellus, UniProt O35505); experiment: Calcium Channel Antagonist Activity in Guinea Pig Isolated Ileal Smooth Muscle (inhibition of Ca++ evoked contractions); details: concentration producing a two-fold rightward shift in the control Ca++ curve; KCl-depolarized (80 mM) longitudinal smooth muscle
T1 construct: The longitudinal smooth muscle is carefully separated from the underlying circular muscle layer; from tissue; host or cells: guinea pig ileum (terminal 10 cm discarded), isolated longitudinal smooth muscle
T1 sequence (O35505 whole entry): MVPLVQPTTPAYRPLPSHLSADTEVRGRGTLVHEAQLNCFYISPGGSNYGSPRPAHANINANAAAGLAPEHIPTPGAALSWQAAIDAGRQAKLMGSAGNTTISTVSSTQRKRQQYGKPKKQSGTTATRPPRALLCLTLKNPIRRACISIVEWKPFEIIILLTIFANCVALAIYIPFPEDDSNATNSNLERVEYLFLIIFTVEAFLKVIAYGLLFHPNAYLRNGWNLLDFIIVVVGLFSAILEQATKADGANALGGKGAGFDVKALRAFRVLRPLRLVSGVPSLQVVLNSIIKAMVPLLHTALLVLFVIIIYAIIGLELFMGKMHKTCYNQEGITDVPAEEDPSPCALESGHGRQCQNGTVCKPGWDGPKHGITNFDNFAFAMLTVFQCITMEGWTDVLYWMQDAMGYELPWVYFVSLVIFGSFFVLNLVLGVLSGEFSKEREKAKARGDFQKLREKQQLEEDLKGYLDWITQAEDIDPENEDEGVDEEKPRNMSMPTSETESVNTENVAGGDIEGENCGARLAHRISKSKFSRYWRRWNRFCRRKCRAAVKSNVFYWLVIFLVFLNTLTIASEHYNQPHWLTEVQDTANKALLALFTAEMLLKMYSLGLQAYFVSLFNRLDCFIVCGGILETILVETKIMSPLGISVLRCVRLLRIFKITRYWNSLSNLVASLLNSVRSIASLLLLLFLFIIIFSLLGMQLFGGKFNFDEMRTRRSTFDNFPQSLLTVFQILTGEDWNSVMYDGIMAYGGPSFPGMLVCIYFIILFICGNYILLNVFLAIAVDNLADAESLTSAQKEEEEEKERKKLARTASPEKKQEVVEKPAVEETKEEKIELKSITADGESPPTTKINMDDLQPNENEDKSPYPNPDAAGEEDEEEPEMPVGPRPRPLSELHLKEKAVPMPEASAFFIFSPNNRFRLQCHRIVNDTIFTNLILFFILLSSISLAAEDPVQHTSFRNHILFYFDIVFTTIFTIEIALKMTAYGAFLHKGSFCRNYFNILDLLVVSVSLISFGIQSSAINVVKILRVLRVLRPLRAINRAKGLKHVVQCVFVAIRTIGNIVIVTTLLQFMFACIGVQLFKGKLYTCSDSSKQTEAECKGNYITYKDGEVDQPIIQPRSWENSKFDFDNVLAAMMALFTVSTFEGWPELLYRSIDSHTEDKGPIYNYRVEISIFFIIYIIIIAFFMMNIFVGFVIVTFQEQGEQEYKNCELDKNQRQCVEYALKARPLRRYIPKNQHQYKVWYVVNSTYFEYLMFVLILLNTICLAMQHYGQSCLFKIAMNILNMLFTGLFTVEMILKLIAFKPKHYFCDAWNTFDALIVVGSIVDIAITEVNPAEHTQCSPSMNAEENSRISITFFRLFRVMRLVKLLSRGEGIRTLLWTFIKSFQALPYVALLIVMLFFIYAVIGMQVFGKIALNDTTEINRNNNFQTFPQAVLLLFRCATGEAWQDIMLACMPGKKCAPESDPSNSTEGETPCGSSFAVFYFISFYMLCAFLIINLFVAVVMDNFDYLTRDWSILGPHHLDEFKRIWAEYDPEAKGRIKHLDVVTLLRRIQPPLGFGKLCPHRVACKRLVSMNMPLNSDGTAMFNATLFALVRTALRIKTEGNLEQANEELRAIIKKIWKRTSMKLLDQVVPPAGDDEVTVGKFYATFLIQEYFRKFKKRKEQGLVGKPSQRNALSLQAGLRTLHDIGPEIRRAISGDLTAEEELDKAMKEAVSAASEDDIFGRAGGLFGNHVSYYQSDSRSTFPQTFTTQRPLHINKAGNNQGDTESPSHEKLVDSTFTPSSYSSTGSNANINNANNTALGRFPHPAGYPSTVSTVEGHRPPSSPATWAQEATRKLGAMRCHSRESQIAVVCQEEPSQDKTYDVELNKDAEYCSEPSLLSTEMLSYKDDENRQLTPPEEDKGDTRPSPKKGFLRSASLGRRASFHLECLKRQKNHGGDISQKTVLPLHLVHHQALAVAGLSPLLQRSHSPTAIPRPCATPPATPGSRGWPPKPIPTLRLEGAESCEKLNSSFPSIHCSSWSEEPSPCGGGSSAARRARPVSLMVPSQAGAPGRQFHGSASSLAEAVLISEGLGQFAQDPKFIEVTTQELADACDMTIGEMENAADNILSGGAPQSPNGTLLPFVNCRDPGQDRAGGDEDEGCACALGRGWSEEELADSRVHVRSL
Description: Calcium Channel Antagonist Activity in Guinea Pig Isolated Ileal Smooth Muscle
Male albino guinea pigs are sacrificed by stunning and exsanguination. The abdominal cavity is opened and the small intestine is removed, with about 10 cm of the terminal ileum being discarded. The tissue is placed in a dish containing Tyrode's solution of the following composition (in mM): NaCl 136.90; KCl 2.68; NaHCO3 11.90; NaH2 PO4 0.36; MgCl2 0.98; CaCl2 1.77; dextrose 5.55 and cut into three to four segments. A glass rod (6 mm diameter) is carefully inserted into the lumen of each segment and excess connective tissue or fat is removed. The longitudinal smooth muscle is carefully separated from the underlying circular muscle layer by gently stroking a moist cotton swab on a tangent to shallow, longitudinal incisions made parallel to the mesenteric attachment. Using gentle traction, and taking care to keep the segment moist at all times, the preparation is stripped from the remaining length of the ileal segment (Paton, W. D. M.; Zar, M. A.; J. Physiol. 1968, 194, 13.)
Each preparation is suspended in a 10 mL jacketed glass tissue bath containing Tyrode's solution maintained at 37° C. and gassed with 5% CO2 in O2. The preparation is attached by silk thread to a force-displacement transducer. […] The initial resting tension is adjusted to 0.5 g and the preparation equilibrated for 55 min prior to experimentation. At the end of this period, the bathing solution is replaced with Ca^++ free Tyrode's solution. This solution is prepared by omitting CaCl2. The preparation is washed four times in Ca^++ free Tyrode's solution to remove any Ca^++ remaining in the bath, and allowed to equilibrate for a further 20 min.
Experimental Protocol. Concentration-response curves to CaCl2 are obtained using the following procedure. Preparations are exposed to a depolarizing concentration of KCl (80 mM) for 6 min. At the end of this period CaCl2 is added to the bath cumulatively in the concentration range 0.2-8.0 mM. Successive additions of each Ca^++ concentration are carried out only when the previous response has reached a plateau. When the maximum response has been attained the bath is again washed (five times) with Ca^++ free buffer, and the preparation re-equilibrated for approximately 15 min. A second Ca^++ concentration-response curve is then obtained in the same manner. This second curve serves as control for that tissue.
Further curves are obtained in the presence of increasing concentrations of the test drugs. Where appropriate, the test drug is added to the bath immediately following addition of KCl, and 6 minutes later the concentration-response curve to Ca^++ is obtained. Each test preparation is exposed to three different concentrations of a test drug. […]

[3] = molecular target: [3H]-Nitrendipine Binding in Rat Cortical Membranes; experiment: Inhibition of [3H]-Nitrendipine Binding in Rat Cortical Membranes; details: rat cortex, room temperature, 90 min
Protocol: [3H]-Nitrendioine Bindino in Rat Cortex
Animals were decapitated and the cortical tissue was dissected, weighed and polytroned in about 20 volumes (w/v) of ice cold buffer ([…] TRIS HCl, pH 7.5). The tissue was then washed 3 times via centrifugation (20,000 rpm for 10 min at 4° C.) with subsequent resuspension in fresh buffer. The final pellet was resuspended prior to the assay at 22.5 mg/mL […]. Incubations were performed at room temperature for 90 min in each assay. These incubations were done in triplicate in a final assay volume of 2.0 mL. Non-specific binding was determined by the addition of 1 uM nifedipine for the [3H]-nitrendipine assay each to triplicate set of tubes. Reactions in each assay were terminated by filtration using a Brandel Cell Harvester followed by washing with ice cold buffer.
For preliminary evaluations in each assay, all compounds were examined at four log concentrations (1 nM-1 uM). full displacement curves were generated on all compounds showing inhibition of specific binding of 50% or greater at a 1 uM drug concentration. Standard reference compounds were included and evaluated in each assay. Analysis of data was done using both the EBDA Scafit program and HP-11C linear regression.

[3H]-yohimbine binding = rank among the enantiomers, in words; cited from earlier work
[4] = test system: spontaneously hypertensive rats; details: rank among the enantiomers, in words; cited from earlier work

SMILES: COC(=O)C1=C(C)NC(C)=C(C(=O)OCCN(C)C[C@@H]2COc3ccccc3O2)[C@@H]1c1cccc([N+](=O)[O-])c1 [2-[N-methyl-N-[(2,3-dihydro-1,4-benzodioxin-2-yl)methyl]amino]ethyl methyl 2,6-dimethyl-4-(3-nitrophenyl)-1,4-dihydropyridine-3,5-dicarboxylate]
- inhibition of [3H]-nitrendipine binding [1]: most potent

SMILES: COC(=O)C1=C(C)NC(C)=C(C(=O)OC(C)C)[C@H]1c1cccc2nonc12 [(S)-enantiomer of PN 200-110, isopropyl methyl 4-(2,1,3-benzoxadiazol-4-yl) -1,4-dihydro-2,6-dimethyl-3,5-pyridinedicarboxylate]
- blood flow to the heart and brain [2]: increased
- cardiac output [2]: increased
- effect on blood pressure [2]: lowered
- effect on heart rate [2]: lowered

SMILES: COC(=O)C1=C(C)NC(C)=C(C(=O)O[C@H]2CN3CCC2CC3)[C@H]1c1cccc([N+](=O)[O-])c1 [(R,S)-I, (R,S)-1-Azabicyclo[2.2.2]oct-3-yl methyl 1,4-dihydro-2,6-dimethyl-4-(3-nitrophenyl)3,5-pyridinedicarboxylate]
- Kb (Guinea Pig Ileum): 174 nM
- Ki [3]: 56 nM

SMILES: COC(=O)C1=C(C)NC(C)=C(C(=O)O[C@H]2CN3CCC2CC3)[C@H]1c1cccc([N+](=O)[O-])c1 [(S,R)-I, (S,R)-1-azabicyclo[2.2.2]oct-3-yl methyl 1,4-dihydro-2,6-dimethyl-4-(3-nitrophenyl)-3,5pyridinedicarboxylate, hydrochloride]
- Kb (Guinea Pig Ileum): 3160 nM

SMILES: COC(=O)C1=C(C)NC(C)=C(C(=O)OCCN(C)C[C@H]2COc3ccccc3O2)[C@H]1c1cccc([N+](=O)[O-])c1 [2-[N-methyl-N-[(2,3-dihydro-1,4-benzodioxin-2-yl)methyl]amino]ethyl methyl 2,6-dimethyl-4-(3-nitrophenyl)-1,4-dihydropyridine-3,5-dicarboxylate]
- inhibition of [3H]-yohimbine binding ([3H]-yohimbine binding): most potent

SMILES: COC(=O)C1=C(C)NC(C)=C(C(=O)O[C@H]2CN3CCC2CC3)[C@@H]1c1cccc([N+](=O)[O-])c1 [(R,R)-I, (R,R)-1-Azabicyclo[2.2.2]oct-3-yl methyl 1,4-dihydro-2,6-dimethyl-4-(3-nitrophenyl)-3,5-pyridinedicarboxylate]
- Kb (Guinea Pig Ileum): 34 nM
- Ki [3]: 11 nM

SMILES: COC(=O)C1=C(C)NC(C)=C(C(=O)O[C@H]2CCCN(Cc3ccccc3)C2)[C@H]1c1cccc([N+](=O)[O-])c1 [(S,S)-enantiomer of 1-benzyl-3-piperidinyl ester]
- Ca++ channel blocking activity as determined by lowering of blood pressure in spontaneously hypertensive rats [4]: greatest

SMILES: COC(=O)C1=C(C)NC(C)=C(C(=O)O[C@H]2CCN(Cc3ccccc3)C2)[C@H]1c1cccc([N+](=O)[O-])c1 [(S,S)-enantiomer of 1-benzyl-3-pyrrolidinyl ester]
- Ca++ channel blocking activity as determined by inhibition of [3H]-nitrendipine binding [1]: greatest

SMILES: COC(=O)C1=C(C)NC(C)=C(C(=O)O[C@@H]2CN3CCC2CC3)[C@H]1c1cccc([N+](=O)[O-])c1 [(S,S)-I, (S,S)-1-Azabicyclo[2.2.2]oct-3-yl methyl 1,4-dihydro-2,6-dimethyl-4-(3-nitrophenyl)-3,5-pyridinedicarboxylate]
- Kb (Guinea Pig Ileum): 1620 nM

SMILES: COC(=O)C1=C(C)NC(C)=C(C(=O)OC(C)C)[C@@H]1c1cccc2nonc12 [(R)-enantiomer of PN 200-110, isopropyl methyl 4-(2,1,3-benzoxadiazol-4-yl) -1,4-dihydro-2,6-dimethyl-3,5-pyridinedicarboxylate]
- blood flow to the heart and brain [2]: increased
- cardiac output [2]: increased
- effect on blood pressure [2]: almost no effect
- effect on heart rate [2]: almost no effect
- potency in the subendocardium of the left ventricle [2]: surprisingly potent
